Assay results as given in BindingDB's records for doi:10.1038/305140a0 (College of France, 1983).
Several values for one entry are separate records, joined by “and”; a condition that tells them apart may be missing. Identical values can stand only once.

molecular target: T1, 5-hydroxytryptamine receptor 1A (Rattus norvegicus, UniProt P19327)
T1 sequence (P19327 whole entry): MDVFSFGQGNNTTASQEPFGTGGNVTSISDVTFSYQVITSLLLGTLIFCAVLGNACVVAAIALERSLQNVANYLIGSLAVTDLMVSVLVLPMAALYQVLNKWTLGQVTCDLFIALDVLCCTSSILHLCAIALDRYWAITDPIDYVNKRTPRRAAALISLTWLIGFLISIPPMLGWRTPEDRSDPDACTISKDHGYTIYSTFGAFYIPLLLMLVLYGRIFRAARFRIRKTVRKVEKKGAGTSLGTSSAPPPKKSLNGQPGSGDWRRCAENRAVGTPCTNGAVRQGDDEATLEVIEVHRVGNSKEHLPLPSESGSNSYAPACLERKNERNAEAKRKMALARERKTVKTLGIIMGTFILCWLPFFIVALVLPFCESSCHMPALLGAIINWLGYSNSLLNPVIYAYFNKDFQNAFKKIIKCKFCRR

SMILES | Ki
CN(C)CCCN1c2ccccc2CCc2ccccc21 | > 10 µM
NCCc1ccc(O)c(O)c1 | > 10 µM
CN1C2CCC1CC(OC(c1ccccc1)c1ccccc1)C2 (stereo not given) | > 10 µM
NCCc1c[nH]c2ccccc12 [1H-indole-3-ethanamine] | 3.72 µM and > 10 µM
COc1ccc2[nH]cc(CCN(C)C)c2c1 [3-(2-DIMETHYLAMINOETHYL)-5-METHOXYINDOLE] | 0.0398 µM and 0.288 µM
O=C(c1ccc(F)cc1)C1CCN(CCn2c(=O)[nH]c3ccccc3c2=O)CC1 [3-(2-{4-[(4-fluorophenyl)carbonyl]piperidin-1-yl}ethyl)-1,2,3,4-tetrahydroquinazoline-2,4-dione] | 4.17 µM and > 10 µM
CN(C)CCCSc1ccccc1NC(=O)/C=C/c1ccccc1 [CINANSERIN] | 1.1 µM and > 10 µM
CN1C[C@H](CNC(=O)OCc2ccccc2)C[C@@H]2c3cccc4c3c(cn4C)C[C@H]21 [METERGOLINE] | 0.0347 µM and 0.245 µM
CC(CN1c2ccccc2Sc2ccccc21)N(C)C (stereo not drawn) [N,N,alpha-trimethyl-10H-phenothiazine-10-ethanamine] | > 10 µM
CN1CCC(=C2c3ccccc3CCc3sccc32)CC1 [NSC_27400] | 2.19 µM and 6.17 µM
